Measured values as given in patent publication US20110189174A1, “COMPOSITIONS AND METHODS FOR TREATING, REDUCING, AMELIORATING, ALLEVIATING, OR INHIBITING PROGRESSION OF, PATHOGENIC OCULAR NEOVASCULARIZATION” (priority 2010, published 2011).

Key:
[1] = Clinical ophthalmic examination in monkeys (vitreal cell scores, anterior chamber inflammation); type: in vivo, cynomolgus monkeys (Macaca fascicularis); settings: cynomolgus monkey, in vivo
Method: (§1) Once the phase Ib study was completed, and it was established that the drug suspension in oil would not interfere with either laser administration, evaluation of CNV or cause adverse effects, phase II was initiated. On days 1, and 15 both eyes of monkeys received 50 μL of Lucentis (0.5 mg/eye), vehicle (0 mg/eye), BOL-303050-X (1.5 mg/eye), BOL-303054-X (1.5 mg/eye) or BOL-303055-X (1.5 mg/eye) (Table 2). Intravitreous injection was performed for each by eye aiming towards mid-vitreous body. Dosing in the right eye was alternated for successive doses (as applicable) at approximately the 11 o'clock and 10 o'clock positions. Dosing in the left eye was alternated for successive doses (as applicable) from approximately the 1 o'clock and 2 o'clock positions.
Animals were examined at baseline, on days 1, 3, 7, 15, and 31 of Dosing Phase II and on the day of scheduled sacrifice (day 38). On days of dose administration the ophthalmic examination was done prior to dosing.

[2] = intravitreal, wet AMD, cited from earlier work
[3] = tested on: human retinal endothelial cells (HREC); test: Testing 7: VEGF-induced HREC proliferation (MTS assay), integrin antagonists and Lucentis alone and in combination; type: cell-based; settings: Lucentis 1 ng/mL
Method: HREC were first cultured overnight in a 96-well plate coated with fibronectin. The next day medium containing different agents as shown in Tables 14 and 15 was pre-incubated for 1 hour before being added into appropriate wells. The cells were cultured at 37° C., 5% CO2, and 95% humidity for another 3 days. After that, cell proliferation was estimated by the MTS assay. In the first study we used VEGF 10 ng/mL (about EC80 in study PH08169), Lucentis® 1 ng/mL (about EC25 in study PH09038) and 5 doses of BOL-303055-X. Normal IgG (1 ng/ml) was also added to groups containing no Lucentis®. All groups contained the same amount of 0.1% DMSO. In the second study, all five compounds (BOL-303049-X, BOL-303050-X, BOL-303051-X, BOL-303054-X and BOL-303055-X) were tested at 1 nM with other conditions remaining the same.
A 96-well plate was coated with human fibronectin (10 μg/mL) for 5 hours at 37° C. HREC were washed with HBSS buffer once, tripsinized and re-suspended in 10% FBS CS-C medium at 18,000 cells/mL. Cells (200 μL) were added to the plate and cultured overnight at 37° C., 5% CO2, and 95% humidity. Next day, the cells were serum-starved for 2 hours.
For study I, VEGF at 10 ng/mL, Lucentis® at 1 ng/mL and BOL-303055-X at 0.1, 0.3, 1, 3 and 10 nM were prepared in 1% FBS CS medium as shown in Table 14. Normal IgG (1 ng/mL) were added to groups containing no Lucentis®. All medium solutions were incubated for 1 hour at 37° C. After carefully medium was aspirated, 200 μL of the medium containing different agents were then added into appropriate wells. The cells were cultured for another 3 days. For the study II as shown in the Table 15, five compounds were tested at 1 nM with other conditions remaining the same as study I.
At the end of incubation, the medium was carefully aspirated from cells and 120 μl of MTS working solution was added into all wells including blank wells (without cells). The plates were incubated at 37° C., 5% CO2, and 95% humidity for 1 hour and then read by a plate reader at 490 nm wavelength.
Median optical density (OD) was generated from different groups. Data were expressed as mean±SEM of the OD values. Statistical analysis was performed using three-way ANOVA after Box-Cox transformations, and p<0.05 was considered statistically significant. To evaluate whether the effects of the combinations were either synergistic or additive, net inhibitions were calculated by subtracting the basal levels in the presence of VEGF from the individual treatments (Lucentis® and Integrin blockers) and the combinations. […] Data analysis was performed utilizing the statistical analysis software JMP (SAS Institute, Cary, N.C.).

[4] = tested on: laser-induced CNV in monkeys; test: Laser-induced choroidal neovascularization in monkeys, fluorescein angiography lesion grading; type: in vivo, cynomolgus monkeys (Macaca fascicularis); settings: intravitreal, both eyes, days 1 and 15, 1.5 mg/eye (Lucentis 0.5 mg/eye)
Method: Study was performed in three phases. In phases Ia and Ib, the behavior of the suspension in aqueous (Ia) and oil (Ib) formulations, and multiple dosing regimens as well as any adverse effect due to multiple dosing at 3 mg/eye (Ia) or 1.5 (Ib) were investigated. In phase II test articles were administered twice during the study period on days 1 and 15. Eyes were examined with an indirect ophthalmoscope and fundus camera.
Adult male cynomolgus monkeys (Macaca fascicularis) age 2-7 years old were used to test the efficacy of BOL-303050-X, BOL-303054-X and BOL-303055-X. Lucentis® (ranibizumab) was used as historic control.
Both eyes of 46 monkeys were examined at baseline and then 42 animals were randomized into 5 groups. On Phase II Day 8 of Dosing, the animals were anesthetized with ketamine and dexmedetomidine and the macula of each eye of the animals in Groups 1 through […] underwent laser treatment by a retinal surgeon with a 532 nm diode green laser (OcuLight GL, IRIDEX Corp. Inc., Mountain View, Calif.) using a slit lamp delivery system and a Kaufman-Wallow (Ocular Instruments Inc, Bellevue, Wash.) plano fundus contact lens with Gonak (2.5%) as the coupling agent. Nine laser spot areas were symmetrically placed in the macula of each eye. The laser parameters included a 75 micron spot size and 0.1 second duration. The power setting used was assessed by the ability to produce a blister and a small hemorrhage. […] For areas not adjacent to the fovea, the initial power setting was 500 mW; if a second spot was placed, the power was set to 650 mW. For the area adjacent to the fovea the power settings were 400 mW (initial treatment) and 550 mW (second treatment). At the discretion of the retinal surgeon, power settings were adjusted based on observations at the time of laser. Power setting used for each spot was documented as well as number of burns per spot and whether hemorrhage occurred.
as §1
Animals were anesthetized with ketamine and dexmedetomidine. A topical anesthetic (0.5% proparacaine) was instilled in each eye before dose administration. A wire speculum was used to retract the eyelids. The eyes were cleaned with a 2.5% povidone iodine solution and then rinsed with sterile saline. Each animal was dosed using 1 cc tuberculin syringes and 30 gauge needles.
FA was performed at baseline, on days 22, 29 and 37 (approximately 14, 21 and 28 days post-laser). Digital ocular photographs were taken in conjunction with FA. The FA procedure is well known by people skilled in the art of ophthalmology.
Evaluation of FA was done according to the following grading system for evidence of excessive permeability (fluorescein leakage) or any other abnormalities.
Grade IV lesions are considered to be clinically significant as these most closely resemble the active forms of classical CNV seen in various human retinal disorders, including age-related macular degeneration. Comparison of the incidence of Grade IV lesions between treatment groups was evaluated.
Grade IV lesions were analyzed using either Fisher's exact probability test (2-Tail) or Chi square test (χ2). […]

For “ranibizumab [Lucentis, reference compound]”, which “Vitreal cell score: number of eyes with grade 4” value [1] is on record?
The value was 0.

And the “Patients who maintained visual acuity” value ([2]; at 1 year)?
The value was 95%.

What about the “Patients with improvement in vision of at least 3 lines” value [2] of the same substance?
The value was 40%.

What about the “Reduction of VEGF-induced HREC proliferation” value ([3]; VEGF 10 ng/mL) of the same substance?
The value was 15-20%.

What about the “HREC proliferation without VEGF” value ([3]; basal and Lucentis-treatment conditions, BOL-303055-X 0.1-10 nM, other compounds 1 nM) of the same substance?
Its value is “did not alter HREC proliferation”.

What about the “Incidence of CNV lesions, Lesion Grade I (% Total)” value ([4]; Day 22) of the same substance?
Its value is 97:126 (76.98) %.

What about the “Incidence of CNV lesions, Lesion Grade II (% Total)” value ([4]; Day 22) of the same substance?
Its value is 20:126 (15.87) %.

And the “Incidence of CNV lesions, Lesion Grade III (% Total)” value ([4]; Day 22)?
Its value is 9:126 (7.14) %.

And the “Incidence of CNV lesions, Lesion Grade IV (% Total)” value ([4]; Day 22)?
Its value is 0:126 (0) %.

And the “Incidence of CNV lesions, Lesion Grade I (% Total)” value ([4]; Day 29)?
Its value is 96:126 (76.19) %.

What about the “Incidence of CNV lesions, Lesion Grade II (% Total)” value ([4]; Day 29) of the same substance?
Its value is 22:126 (17.46) %.

What about the “Incidence of CNV lesions, Lesion Grade III (% Total)” value ([4]; Day 29) of the same substance?
The value was 8:126 (6.35) %.

And the “Incidence of CNV lesions, Lesion Grade IV (% Total)” value ([4]; Day 29)?
Its value is 0:126 (0) %.

And the “Incidence of CNV lesions, Lesion Grade I (% Total)” value ([4]; Day 37)?
The value was 118:126 (93.65) %.

What about the “Incidence of CNV lesions, Lesion Grade II (% Total)” value ([4]; Day 37) of the same substance?
Its value is 8:126 (6.35) %.

What about the “Incidence of CNV lesions, Lesion Grade III (% Total)” value ([4]; Day 37) of the same substance?
Its value is 3:126 (1.85) %.

What about the “Incidence of CNV lesions, Lesion Grade IV (% Total)” value ([4]; Day 37) of the same substance?
Its value is 0:126 (0) %.
